Laboratory results from US4473554A, “Bestatin-related compounds as immunopotentiator” (Zaidan Hojin Biseibutsu Kagaku Kenkyu Kai, priority 1982, dated 1984).

Tests used:
[1] = system: D.T.H. response in mice immunized with SRBC as antigen; experiment: D.T.H. footpad test in mice immunized with SRBC, Examples 3-6 (dosages per mouse); type: in vivo; conditions: for Degree of swelling: control = 100; for Degree of swelling, Intraperitoneal injection / Degree of swelling, Oral administration: Table 5
Protocol: The effect of (2S,3R)-AHPA on cell-mediated immunity was tested in the same way in Example 2, namely according to the D.T.H. technique using mice immunized with sheep red blood cell as antigen. Thus, a suspension of 10^8 sheep red blood cells in 0.05 ml of physiological saline were subcutaneously injected at the time of immunization into the right hind footpad of each CDF1 -mouse under test (female, 8 weeks-aged, 5 mice in each group) to establish D.T.H. […] The degree of swelling was evaluated. By way of comparison, bestatin was tested in the same way as above. […] The effect of (2S,3R)-AHPA on the D.T.H. response was estimated in the same manner as in the above procedure (A) of Example 3 by orally administering 1 mcg/mouse, 0.1 mcg/mouse or 0.01 mcg/mouse of (2S,3R)-AHPA to each mouse under test. […] The effect of the mode of administering (2S,3R)-AHPA on the D.T.H. response was estimated in the same manner as in the procedure (A) of Example 3, except that the test compound (as aqueous solution) was injected intraperitoneally in stead of being given orally.

[2] = system: ICR-strain mice; experiment: acute toxicity, intraperitoneal, ICR-strain mice; type: in vivo, mouse; conditions: dosage of 100 mg/kg
Text: In order to estimate the acute toxicity of the compound of the formula (VIII) or (IIId), some of the test compound was intraperitoneally given to ICR-strain mice (in groups each consisting of 6 mice, male, 5 weeks-aged, average body weight 20 g.), when all the tested mice tolerated intraperitoneal administration of (2S,3R)-APHA; (2S)-2-N-[(2'S,3'R)-3'-amino-2'-hydroxy-4'-phenyl-butanoyl]amino-4-methyl- pentanol; (2S)-2-N-[(2'S,3'R)-3'-amino-2'-hydroxy-4'-phenylbutanoyl-(S)-leucyl]amino-4-methyl-pentanol; (2S,3R)-3-amino-2-hydroxy-4-phenylbutanoyl-(S)-leucyl-(S)-leucine; (2S,3R)-3-amino-2-hydroxy-4-phenyl-butanoyl-(S)-leucyl-(S)-arginine; (2S,3R)-3-amino-2-hydroxy-4-phenylbutanoyl-(S)-leucyl-(S)-asparagine; (2R,3R)-3-amino-2-hydroxy-4-phenylbutanoyl-(S)-leucyl-(R)-asparagine; and (2S,3R)-3-amino-2-hydroxy-4-phenylbutanoyl-(S)-leucyl-(R)-arginine at a dosage of 100 mg/kg.

[3] = target: T1, aminopeptidase B (Rattus norvegicus, UniProt O09175); conditions: Journal of Medicinal Chemistry Vol. 20, No.4, pp. 510-515 (1977); cited from earlier work
T1 sequence (O09175 1-650): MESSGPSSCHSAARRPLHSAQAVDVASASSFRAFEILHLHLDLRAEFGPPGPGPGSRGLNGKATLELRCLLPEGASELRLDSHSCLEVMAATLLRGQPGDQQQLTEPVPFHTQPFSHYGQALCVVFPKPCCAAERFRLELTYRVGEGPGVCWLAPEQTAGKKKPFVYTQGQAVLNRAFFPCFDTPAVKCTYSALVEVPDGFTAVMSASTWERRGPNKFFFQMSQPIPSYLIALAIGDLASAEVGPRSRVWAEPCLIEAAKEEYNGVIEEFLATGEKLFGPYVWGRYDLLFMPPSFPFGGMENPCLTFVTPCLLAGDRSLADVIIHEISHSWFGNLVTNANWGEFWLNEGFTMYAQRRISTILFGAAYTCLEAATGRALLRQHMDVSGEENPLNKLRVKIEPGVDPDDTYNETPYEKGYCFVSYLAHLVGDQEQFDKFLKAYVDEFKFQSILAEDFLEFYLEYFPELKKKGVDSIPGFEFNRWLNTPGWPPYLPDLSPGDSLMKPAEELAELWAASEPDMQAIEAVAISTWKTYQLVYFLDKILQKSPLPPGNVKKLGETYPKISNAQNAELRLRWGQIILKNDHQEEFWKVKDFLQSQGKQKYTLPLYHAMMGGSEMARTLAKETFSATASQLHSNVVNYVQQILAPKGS

[4] = solubility in water

N[C@H](Cc1ccccc1)[C@H](O)C(=O)O [(2S,3R)-AHPA]
Increase in thickness of footpad (± S.D.) ([1]; Table 3, oral 0.01 mcg/mouse): 10.6 ± 1.17 × 0.1 mm
Degree of swelling ([1]; Table 3, oral 0.01 mcg/mouse): 134%
Increase in thickness of footpad (± S.D.) ([1]; Table 3, oral 0.1 mcg/mouse): 11.6 ± 1.85 × 0.1 mm
Degree of swelling ([1]; Table 3, oral 0.1 mcg/mouse): 147%
Increase in thickness of footpad (± S.D.) ([1]; Table 3, oral 1 mcg/mouse): 11.9 ± 0.97 × 0.1 mm
Degree of swelling ([1]; Table 3, oral 1 mcg/mouse): 151%
Increase in thickness of footpad (± S.D.) ([1]; Table 3, oral 10 mcg/mouse): 10.9 ± 0.57 × 0.1 mm
Degree of swelling ([1]; Table 3, oral 10 mcg/mouse): 138%
Increase in thickness of footpad (± S.D.) ([1]; Table 4, oral 0.01 mcg/mouse): 10.1 ± 1.52 × 0.1 mm
Degree of swelling ([1]; Table 4, oral 0.01 mcg/mouse): 125%
Increase in thickness of footpad (± S.D.) ([1]; Table 4, oral 0.1 mcg/mouse): 11.1 ± 0.82 × 0.1 mm
Degree of swelling ([1]; Table 4, oral 0.1 mcg/mouse): 137%
Increase in thickness of footpad (± S.D.) ([1]; Table 4, oral 1 mcg/mouse): 10.8 ± 1.29 × 0.1 mm
Degree of swelling ([1]; Table 4, oral 1 mcg/mouse): 133%
Degree of swelling, Intraperitoneal injection ([1]; intraperitoneal 1 mcg/mouse): 143%
Degree of swelling, Intraperitoneal injection ([1]; intraperitoneal 10 mcg/mouse): 128%
Degree of swelling, Oral administration ([1]; oral 1 mcg/mouse): 135%
Degree of swelling, Oral administration ([1]; oral 10 mcg/mouse): 126%
Increase in thickness of footpad (± S.D.) ([1]; Table 7, oral 1 mcg/mouse): 11.7 ± 1.29 × 0.1 mm
Degree of swelling ([1]; Table 7, oral 1 mcg/mouse): 135%
Increase in thickness of footpad (± S.D.) ([1]; Table 7, oral 10 mcg/mouse): 11.0 ± 1.05 × 0.1 mm
Degree of swelling ([1]; Table 7, oral 10 mcg/mouse): 126%
enhancement of cell-mediated immunity compared with bestatin ([1]; intraperitoneal injection or oral administration): enhances the cell-mediated immunity as much as or much more than bestatin
immunopotentiating activity compared with bestatin ([1]; oral 0.01 to 10 mcg/mouse versus bestatin oral 1 to 10 mcg/mouse): exhibits the immunopotentiating activity as high as bestatin
enhancement of D.T.H. response compared with bestatin ([1]; oral, dosages lower than 1 mcg/mouse): enhances the D.T.H. response much more than bestatin
enhancement of cell-mediated immunity ([1]; oral, low dosage of 0.01 mcg/mouse): active to enhance the cell-mediated immunity
acute toxicity: tolerance of intraperitoneal administration [2]: tolerated
inhibitory activity to aminopeptidase B [3]: weak inhibitory activity
solubility in water [4]: soluble in water
